According to the NIST ThermoML archive (doi:10.1021/je401120a):

Tests used:
[1] = Liquid; for viscosity / electrical conductivity / speed of sound / mass density: 101 kPa; for electrical conductivity: Crison conductimeter (model GLP31); for speed of sound: Pulse-echo method; for mass density: Vibrating tube method; for vapor or sublimation pressure: Ebulliometric method (Recirculating still)
[2] = refractive index (Na D-line) (dimensionless); conditions: 101.33 kPa, Liquid, Standard Abbe refractometry
[3] = refractive index (Na D-line) (dimensionless); xn = mol fraction of the nth substance listed; conditions: 101 kPa, Liquid, Standard Abbe refractometry, x2 = 0
[4] = xn = mol fraction of the nth substance listed; conditions: 101 kPa, Liquid, x2 = 0; for speed of sound: Pulse-echo method; for mass density: Vibrating tube method

CCC[n+]1ccccc1.F[B-](F)(F)F [1-propylpyridinium tetrafluoroborate]
Conditions	electrical conductivity, [1] [S/m]	mass density, [1] [kg/m3]	refractive index, [2]	speed of sound, [1] [m/s]	viscosity, [1] [mPa·s]
293.15 K	0.302	1256.67	1.44588	1653.9	160
303.15 K	0.516	1249.54	1.44322	1629.8	90.75
313.15 K	0.799	1242.43	1.44057	1606.3	56.02
323.15 K	1.15	1235.31	1.43792	1583.3	36.99

CO [methanol]
Conditions	mass density, [1] [kg/m3]	refractive index, [2]	speed of sound, [1] [m/s]	vapor or sublimation pressure, [1] [kPa]	viscosity, [1] [mPa·s]
293.15 K	791.243	1.32843	1118.8	–	0.5833
303.15 K	781.813	1.32433	1086	21.93	0.507
313.15 K	772.287	1.32015	1053.5	–	0.4438
323.15 K	762.828	1.3167	1021.5	55.78	0.3873

CO [methanol] + CCC[n+]1ccccc1.F[B-](F)(F)F
Conditions	mass density, [4] [kg/m3]	refractive index, [3]	speed of sound, [4] [m/s]	viscosity, [4] [mPa·s]
293.15 K	791.243	1.32843	1118.8	0.5833
303.15 K	781.813	1.32433	1086	0.507
313.15 K	772.287	1.32015	1053.5	0.4438
323.15 K	762.828	1.3167	1021.5	0.3873
